Data on 14 molecules can be found in ChEMBL document CHEMBL5137068, “Discovery of Hexahydrofuro[3,2-b]furans as New Kinase-Selective and Orally Bioavailable JAK3 Inhibitors for the Treatment of Leukemia Harboring a JAK3 Activating Mutant” (J Med Chem, 2022).

In one data set the test system is U-937. The data set is described as follows: cells. The note with it: Homo sapiens, U-937, 72 h.
The test system of data set [1] is BaF3. As to the kind of experiment: cells. Particulars: Mus musculus, BaF3, 72 h.
Data set [2] deals with BaF3. As to the kind of experiment: cells. The note with it: Mus musculus, BaF3, 72 h. This is another data set of the same source.
Description: Antiproliferative activity against mouse BaF3 parent cell measured after 72 hrs by CCK-8 assay
Data set [3] deals with BaF3. As to the kind of experiment: cells. The note with it: Mus musculus, BaF3, 72 h. This is another data set of the same source.
The subject of data set [4] is BaF3. The data set is described as follows: cells. Particulars: Mus musculus, BaF3, 72 h. This is another data set of the same source.
Data set [5] deals with T1, Tyrosine-protein kinase JAK3 (Homo sapiens, UniProt P52333).
T1 sequence (P52333 whole entry): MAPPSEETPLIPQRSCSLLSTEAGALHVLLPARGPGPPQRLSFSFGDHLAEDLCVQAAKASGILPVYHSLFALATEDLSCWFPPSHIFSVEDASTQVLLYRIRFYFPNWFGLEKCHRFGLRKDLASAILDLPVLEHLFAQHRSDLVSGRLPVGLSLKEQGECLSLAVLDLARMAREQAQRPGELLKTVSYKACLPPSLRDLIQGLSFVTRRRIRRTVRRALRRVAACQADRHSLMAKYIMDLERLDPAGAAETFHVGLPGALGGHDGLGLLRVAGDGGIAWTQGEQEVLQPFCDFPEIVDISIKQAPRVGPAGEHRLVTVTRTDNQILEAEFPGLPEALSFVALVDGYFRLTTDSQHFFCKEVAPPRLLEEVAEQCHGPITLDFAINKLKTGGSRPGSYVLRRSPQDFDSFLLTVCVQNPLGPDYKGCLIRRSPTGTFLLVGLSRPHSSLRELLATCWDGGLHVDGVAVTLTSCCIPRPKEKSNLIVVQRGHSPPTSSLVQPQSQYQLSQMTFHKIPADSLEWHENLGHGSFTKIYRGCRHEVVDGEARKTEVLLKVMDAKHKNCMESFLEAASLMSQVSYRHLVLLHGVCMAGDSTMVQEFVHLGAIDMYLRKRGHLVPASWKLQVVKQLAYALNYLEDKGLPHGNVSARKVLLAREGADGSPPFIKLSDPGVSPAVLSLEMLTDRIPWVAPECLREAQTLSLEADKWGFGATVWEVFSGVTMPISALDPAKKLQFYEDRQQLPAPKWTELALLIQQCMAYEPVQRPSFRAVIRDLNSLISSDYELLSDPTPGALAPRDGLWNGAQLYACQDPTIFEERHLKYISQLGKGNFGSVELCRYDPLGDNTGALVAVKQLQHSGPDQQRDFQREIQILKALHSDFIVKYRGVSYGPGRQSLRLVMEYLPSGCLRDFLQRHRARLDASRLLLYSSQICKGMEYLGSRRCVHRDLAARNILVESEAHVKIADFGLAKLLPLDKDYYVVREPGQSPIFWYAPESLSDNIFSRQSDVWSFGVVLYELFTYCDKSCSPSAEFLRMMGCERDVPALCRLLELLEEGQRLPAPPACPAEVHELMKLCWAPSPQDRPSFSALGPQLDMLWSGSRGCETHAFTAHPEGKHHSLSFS
Description: Inhibition of GST tagged recombinant human JAK3 expressed in baculovirus infection system by FRET assay

For data set [6], the target named is Tyrosine-protein kinase JAK2 (Homo sapiens, UniProt O60674).
Description: Inhibition of GST tagged recombinant human JAK2 expressed in baculovirus infection system by FRET assay
Data set [7] has as its target Non-receptor tyrosine-protein kinase TYK2 (Homo sapiens, UniProt P29597).
Description: Inhibition of human TYK2 by FRET assay
The target of data set [8] is Tyrosine-protein kinase JAK1 (Homo sapiens, UniProt P23458).
Data set [9] can be described thus: AUC(0 to infinity) in 12 hr fasted SPF Sprague-Dawley rat at 15 mg/kg, po upon 2 hrs fasting post-administration upto 24 hrs. It is filed as ADME, organism-based. Details: dose 15 mg/kg, time < 24 hrs, route po. The note with it: in vivo.
The nature of data set [10]: Half life in 12 hr fasted SPF Sprague-Dawley rat at 5 mg/kg, iv upon 2 hrs fasting post-administration measured upto 24 hrs. Particulars: in vivo. It is filed as ADME, organism-based.
The nature of data set [11]: Metabolic stability in rat liver microsome assessed as half life preincubated for 5 mins followed by NADPH addition measured upto 45 mins by LC/MS analysis. Particulars: liver microsomes, time < 50 min. It is filed as ADME. Background: Liver microsomes are a subcellular fraction often used to study metabolism.
Data set [12] is described as follows: Clearance in 12 hr fasted SPF Sprague-Dawley rat at 5 mg/kg, iv upon 2 hrs fasting post-administration measured upto 24 hrs. The note with it: in vivo. Type of data set: ADME, organism-based.
Data set [13] can be described thus: Oral bioavailability in 12 hr fasted SPF Sprague-Dawley rat at 15 mg/kg upon 2 hrs fasting post-administration measured upto 24 hrs. The note with it: in vivo. Type of data set: ADME, organism-based.
Data set [14] can be described thus: AUC(0 to infinity) in 12 hr fasted SPF Sprague-Dawley rat at 5 mg/kg, iv upon 2 hrs fasting post-administration measured upto 24 hrs. Particulars: in vivo. More on the design: dose 5 mg/kg, time < 24 hrs, route iv. It is filed as ADME, organism-based.
Data set [15] in a line: Cmax in 12 hr fasted SPF Sprague-Dawley rat at 15 mg/kg, po upon 2 hrs fasting post-administration measured upto 24 hrs. Type of data set: ADME, organism-based. Details: time < 24 hrs, dose 15 mg/kg, route po. Particulars: in vivo.
A short description of data set [16]: Half life in 12 hr fasted SPF Sprague-Dawley rat at 15 mg/kg, po upon 2 hrs fasting post-administration measured upto 24 hrs. It is filed as ADME, organism-based. Particulars: in vivo.
The nature of data set [17]: Cmax in 12 hr fasted SPF Sprague-Dawley rat at 5 mg/kg, iv upon 2 hrs fasting post-administration measured upto 24 hrs. More on the design: dose 5 mg/kg, time < 24 hrs, route iv. Particulars: in vivo. It is filed as ADME, organism-based.

Tyrosine-protein kinase JAK2, sequence (O60674 whole entry): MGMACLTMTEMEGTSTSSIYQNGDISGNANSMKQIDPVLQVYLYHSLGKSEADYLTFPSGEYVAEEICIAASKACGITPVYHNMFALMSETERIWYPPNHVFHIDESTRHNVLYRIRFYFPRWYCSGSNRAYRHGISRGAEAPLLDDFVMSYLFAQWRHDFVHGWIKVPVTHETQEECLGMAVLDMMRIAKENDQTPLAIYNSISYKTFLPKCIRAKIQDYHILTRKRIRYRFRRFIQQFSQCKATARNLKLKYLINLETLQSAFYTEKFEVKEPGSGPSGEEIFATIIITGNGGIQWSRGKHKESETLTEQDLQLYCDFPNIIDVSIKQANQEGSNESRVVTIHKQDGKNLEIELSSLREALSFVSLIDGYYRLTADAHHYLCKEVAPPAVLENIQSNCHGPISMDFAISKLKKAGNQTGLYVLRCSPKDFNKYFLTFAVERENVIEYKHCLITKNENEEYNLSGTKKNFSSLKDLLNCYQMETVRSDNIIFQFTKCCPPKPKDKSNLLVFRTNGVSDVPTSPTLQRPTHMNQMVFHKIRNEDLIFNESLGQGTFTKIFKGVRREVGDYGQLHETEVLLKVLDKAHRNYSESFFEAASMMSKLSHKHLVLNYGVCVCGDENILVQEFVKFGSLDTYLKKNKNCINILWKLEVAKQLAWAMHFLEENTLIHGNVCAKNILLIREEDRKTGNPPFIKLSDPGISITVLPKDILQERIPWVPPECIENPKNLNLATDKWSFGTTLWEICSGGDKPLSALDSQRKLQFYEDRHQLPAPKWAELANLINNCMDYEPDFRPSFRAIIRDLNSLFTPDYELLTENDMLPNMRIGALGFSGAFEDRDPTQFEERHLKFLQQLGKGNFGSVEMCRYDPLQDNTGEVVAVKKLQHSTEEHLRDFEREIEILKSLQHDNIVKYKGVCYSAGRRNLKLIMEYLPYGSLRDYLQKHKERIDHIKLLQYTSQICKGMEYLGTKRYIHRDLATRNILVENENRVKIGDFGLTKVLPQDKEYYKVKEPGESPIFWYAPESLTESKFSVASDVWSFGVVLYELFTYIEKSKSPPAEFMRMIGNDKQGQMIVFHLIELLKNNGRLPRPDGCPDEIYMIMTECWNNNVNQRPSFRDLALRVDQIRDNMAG
Tyrosine-protein kinase JAK1, sequence (P23458 whole entry): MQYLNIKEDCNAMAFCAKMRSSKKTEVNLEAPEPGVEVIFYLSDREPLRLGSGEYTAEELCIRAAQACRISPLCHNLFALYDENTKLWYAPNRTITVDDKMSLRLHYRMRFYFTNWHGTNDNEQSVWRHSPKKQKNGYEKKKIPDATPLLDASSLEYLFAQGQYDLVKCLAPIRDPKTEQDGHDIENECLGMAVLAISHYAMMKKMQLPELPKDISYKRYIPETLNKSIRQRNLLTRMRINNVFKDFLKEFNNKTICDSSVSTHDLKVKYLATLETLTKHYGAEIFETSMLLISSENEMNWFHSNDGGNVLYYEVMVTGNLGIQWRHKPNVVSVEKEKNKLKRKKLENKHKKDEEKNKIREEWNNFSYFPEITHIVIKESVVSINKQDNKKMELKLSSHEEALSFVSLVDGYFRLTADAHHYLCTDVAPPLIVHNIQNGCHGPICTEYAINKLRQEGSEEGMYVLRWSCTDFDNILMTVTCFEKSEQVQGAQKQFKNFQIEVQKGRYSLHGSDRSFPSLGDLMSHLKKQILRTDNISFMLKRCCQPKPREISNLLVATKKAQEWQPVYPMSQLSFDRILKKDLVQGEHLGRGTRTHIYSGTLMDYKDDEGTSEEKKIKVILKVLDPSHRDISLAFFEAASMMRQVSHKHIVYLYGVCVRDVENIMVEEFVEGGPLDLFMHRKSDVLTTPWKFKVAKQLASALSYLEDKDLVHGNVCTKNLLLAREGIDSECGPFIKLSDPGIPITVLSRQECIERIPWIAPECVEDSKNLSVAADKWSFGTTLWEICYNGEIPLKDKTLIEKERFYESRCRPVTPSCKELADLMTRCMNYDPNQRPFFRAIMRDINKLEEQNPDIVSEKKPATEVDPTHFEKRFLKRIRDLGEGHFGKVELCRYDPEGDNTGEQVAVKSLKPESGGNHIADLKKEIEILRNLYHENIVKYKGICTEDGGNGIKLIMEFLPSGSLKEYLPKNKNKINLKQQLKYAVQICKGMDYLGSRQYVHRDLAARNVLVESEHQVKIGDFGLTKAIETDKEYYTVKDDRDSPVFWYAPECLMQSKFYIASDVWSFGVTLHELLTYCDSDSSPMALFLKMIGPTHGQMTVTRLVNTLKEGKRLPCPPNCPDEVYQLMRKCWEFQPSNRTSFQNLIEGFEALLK
Non-receptor tyrosine-protein kinase TYK2, sequence (P29597 whole entry): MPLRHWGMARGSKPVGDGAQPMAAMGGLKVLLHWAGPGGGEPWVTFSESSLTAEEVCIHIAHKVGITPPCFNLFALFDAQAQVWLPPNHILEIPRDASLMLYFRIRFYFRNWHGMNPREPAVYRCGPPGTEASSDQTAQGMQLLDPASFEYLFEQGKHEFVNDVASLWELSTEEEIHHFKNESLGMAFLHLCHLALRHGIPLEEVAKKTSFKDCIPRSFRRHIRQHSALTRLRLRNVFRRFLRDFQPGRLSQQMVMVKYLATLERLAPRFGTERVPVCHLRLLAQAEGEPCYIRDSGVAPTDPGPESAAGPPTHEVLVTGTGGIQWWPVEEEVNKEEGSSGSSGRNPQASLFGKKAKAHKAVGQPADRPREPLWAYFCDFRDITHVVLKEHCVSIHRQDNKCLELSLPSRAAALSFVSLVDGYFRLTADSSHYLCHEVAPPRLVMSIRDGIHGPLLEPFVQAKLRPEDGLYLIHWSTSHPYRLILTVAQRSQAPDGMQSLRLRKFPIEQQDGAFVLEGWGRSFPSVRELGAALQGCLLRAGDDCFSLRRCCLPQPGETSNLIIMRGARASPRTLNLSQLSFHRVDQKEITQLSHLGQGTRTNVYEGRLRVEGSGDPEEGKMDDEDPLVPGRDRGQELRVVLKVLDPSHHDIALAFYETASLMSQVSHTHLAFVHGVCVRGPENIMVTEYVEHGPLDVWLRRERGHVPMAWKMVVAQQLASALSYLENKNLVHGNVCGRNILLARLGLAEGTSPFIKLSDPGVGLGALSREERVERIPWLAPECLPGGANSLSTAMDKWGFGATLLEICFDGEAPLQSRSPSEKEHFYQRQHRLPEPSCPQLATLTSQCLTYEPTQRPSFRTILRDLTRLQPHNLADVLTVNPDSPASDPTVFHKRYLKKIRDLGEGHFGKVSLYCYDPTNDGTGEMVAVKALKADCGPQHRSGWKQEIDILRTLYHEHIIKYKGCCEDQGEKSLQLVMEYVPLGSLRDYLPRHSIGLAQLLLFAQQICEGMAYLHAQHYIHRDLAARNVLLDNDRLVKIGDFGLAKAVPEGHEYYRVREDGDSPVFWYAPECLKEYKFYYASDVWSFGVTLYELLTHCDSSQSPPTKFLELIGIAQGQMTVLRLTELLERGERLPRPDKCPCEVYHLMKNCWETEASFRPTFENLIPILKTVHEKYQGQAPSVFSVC

By IC50 is commonly meant the concentration that inhibits the measured activity by half. Read a high IC50 as a need for much substance. As for `C=CC(=O)Nc1cc(Nc2ncc(Cl)c(O[C@@H]3CO[C@H]4[C@@H]3OC[C@@H]4F)n2)ccc1N(C)CCN(C)C`, the IC50 in the data set with U-937 turned out to be 40.7 nM; in the data set with BaF3 [1] it was 435 nM; in the data set on BaF3 [2], 476 nM; with BaF3 [3], 88.6 nM; in the data set with BaF3 [4] it was 418 nM.

Turning to `C=CC(=O)Nc1cc(Nc2ncc(Cl)c(O[C@@H]3CO[C@H]4[C@@H]3OC[C@H]4OC(C)C)n2)ccc1N(C)CCN(C)C`, the IC50 amounted to 44 nM in the data set on U-937; 336 nM in the data set with BaF3 [1]; 205 nM in the data set on BaF3 [2]; 179 nM in the data set on BaF3 [3]; 1.3 nM in [5]; 166 nM in the data set with BaF3 [4].

`C=CC(=O)Nc1cc(Nc2ncc(Cl)c(O[C@@H]3CO[C@H]4[C@@H]3OC[C@H]4F)n2)ccc1N(C)CCN(C)C`: the IC50 with U-937 was 50.3 nM; in the data set with BaF3 [1], 461 nM; in the data set with BaF3 [2], 519 nM; in the data set with BaF3 [3] it was 46.4 nM; in [5], 1.3 nM; with BaF3 [4], 416 nM.

Take `C=CC(=O)Nc1cc(Nc2ncc(Cl)c(O[C@@H]3CO[C@H]4[C@@H]3OC[C@H]4O)n2)ccc1N1CCC(N2CCN(C)CC2)CC1`: the IC50 in data set [6] came to 1030 nM; in the data set on U-937, 35.9 nM; in the data set with BaF3 [1], 122 nM; in the data set with BaF3 [2], 40.4 nM; in [7] it was 369 nM; with BaF3 [3] it was 20.1 nM. Moreover, the concentration for half-maximal inhibition (IC50) in data set [5] was 1.8 nM; in data set [8], 1540 nM; in the data set on BaF3 [4], 46.3 nM.

In the case of `C#CCCN(C)CCN(C)c1ccc(Nc2ncc(Cl)c(O[C@@H]3CO[C@H]4[C@@H]3OC[C@H]4OC)n2)cc1NC(=O)C=C`, the half-inhibitory concentration (IC50) in [5] worked out at 1.7 nM.

Consider `C=CC(=O)Nc1cc(Nc2ncc(Cl)c(O[C@@H]3CO[C@H]4[C@@H]3OCC4(F)F)n2)ccc1N(C)CCN(C)C`, for which the IC50 amounted to 33.8 nM in the data set with U-937; 180 nM with BaF3 [1]; 214 nM in the data set with BaF3 [2]; 56.4 nM in the data set with BaF3 [3]; 1.2 nM in [5]; 188 nM in the data set with BaF3 [4].

What is called AUC(0-inf) is the area under the concentration-time curve extrapolated to infinity. A low value points to less exposure. One may read the half-life as the time needed for the level to fall by half in the phase considered. Usually bioavailability stands for the share of a dose that reaches the circulation, judged against a reference dose that is usually intravenous. Low values mean little systemic uptake, high ones much systemic uptake. Broadly, the Cmax is the highest concentration seen after dosing. On to `C=CC(=O)Nc1cc(Nc2ncc(Cl)c(O[C@@H]3CO[C@H]4[C@@H]3OC[C@H]4O)n2)ccc1N(C)CCN(C)C`, for which the AUC(0-inf) in [9] came out at 105 ng·h/mL; in data set [14], 280 ng·h/mL. Further, the half-life in data set [10] is 0.8 h; in [16] it was 1.02 h. Besides, the IC50 was determined as 15.2 nM in the data set on U-937; 133 nM with BaF3 [1]; 102 nM in the data set on BaF3 [2]; 24.9 nM with BaF3 [3]; 149 nM in the data set with BaF3 [4]. Further, the half-life at […] in [11] was 2 h. Also, the CL in data set [12] came to 299.15%. Also, the bioavailability in data set [13] was determined as 12.4%. Also, the maximum concentration (Cmax) turned out to be 79.1 ng/mL in [15] and 440 ng/mL in data set [17].

For the molecule `CN1CCN(C2CCN(c3ccc(Nc4ncc(Cl)c(O[C@@H]5CO[C@H]6[C@@H]5OC[C@H]6O)n4)cc3Cl)CC2)CC1`, the IC50 in the data set with BaF3 [1] was more than 10000 nM; in the data set with BaF3 [2] it was 1380 nM; in the data set with BaF3 [3], 1650 nM; in the data set with BaF3 [4], more than 10000 nM.

For `C=CC(=O)Nc1cccc(Nc2ncc(Cl)c(O[C@@H]3CO[C@H]4[C@@H]3OC[C@H]4O)n2)c1`, the half-inhibitory concentration (IC50) in [6] is 1400 nM; in data set [7], 94 nM; in data set [5], 1.2 nM; in [8], 556 nM.

For `C=CC(=O)Nc1cc(Nc2ncc(Cl)c(O[C@@H]3CO[C@H]4[C@@H]3OC[C@H]4O)n2)ccc1N1CCOCC1`, 1.6 nM corresponded to half-maximal inhibition in data set [5] (IC50).

Consider `C=CC(=O)N1C[C@H](Nc2ncnc3[nH]ccc23)CC[C@@H]1C` [RITLECITINIB], for which the IC50 is 19.5 nM in the data set on U-937; more than 10000 nM in the data set on BaF3 [1]; more than 10000 nM in the data set with BaF3 [2]; 28.1 nM with BaF3 [3]; more than 10000 nM in the data set with BaF3 [4].

As to `C=CC(=O)Nc1cc(Nc2ncc(Cl)c(O[C@@H]3CO[C@H]4[C@@H]3OC[C@H]4O)n2)ccc1N1CCC(N(C)C)C1` (stereo partly drawn), inhibition in [5] was half-maximal at 1.9 nM (IC50).

Regarding `C=CC(=O)Nc1cc(Nc2ncc(Cl)c(O[C@@H]3CO[C@H]4[C@@H]3OC[C@H]4O)n2)ccc1N1C[C@H]2C[C@@H]1CN2C`, inhibition in data set [5] was half-maximal at 1.5 nM (IC50).

As for `C=CC(=O)Nc1cc(Nc2ncc(Cl)c(O[C@@H]3CO[C@H]4[C@@H]3OC[C@H]4OCC)n2)ccc1N(C)CCN(C)C`, the IC50 in the data set on U-937 was 30 nM; with BaF3 [1] it was 313 nM; in the data set with BaF3 [2], 161 nM; in the data set with BaF3 [3], 108 nM; in the data set with BaF3 [4] it was 137 nM.
